Laboratory results taken from publication PMC4620497 (Scientific Reports, 2015).

What was measured:
PIP5K1A = target: T1, PIP5K1A (Homo sapiens, UniProt Q99755); experiment: KINOMEscan panel screen; format: binding; conditions: read-out: Percent Control(%)
T1 construct: purchased DiscoveRx KINOMEscan (Ambit Biosciences)

LYN = target: T2, LYN (Homo sapiens, UniProt P07948); experiment: KINOMEscan panel screen; format: binding; conditions: read-out: Percent Control(%)
T2 construct: purchased DiscoveRx KINOMEscan (Ambit Biosciences)

MLK2 = target: T3, MLK2 (Homo sapiens, UniProt Q02779); experiment: KINOMEscan panel screen; format: binding; conditions: read-out: Percent Control(%)
T3 construct: purchased DiscoveRx KINOMEscan (Ambit Biosciences)

CSNK1G2 = target: T4, CSNK1G2 (Homo sapiens, UniProt P78368); experiment: KINOMEscan panel screen; format: binding; conditions: read-out: Percent Control(%)
T4 construct: purchased DiscoveRx KINOMEscan (Ambit Biosciences)

[1] = target: T5, RSK1(Kin.Dom.2-C-terminal) (Homo sapiens, UniProt Q15418); experiment: KINOMEscan panel screen; format: binding; conditions: read-out: Percent Control(%)
T5 construct: RSK1(Kin.Dom.2-C-terminal); purchased DiscoveRx KINOMEscan (Ambit Biosciences)

PHKG1 = target: T6, PHKG1 (Homo sapiens, UniProt Q16816); experiment: KINOMEscan panel screen; format: binding; conditions: read-out: Percent Control(%)
T6 construct: purchased DiscoveRx KINOMEscan (Ambit Biosciences)

ARK5 = target: T7, ARK5 (Homo sapiens, UniProt O60285); experiment: KINOMEscan panel screen; format: binding; conditions: read-out: Percent Control(%)
T7 construct: purchased DiscoveRx KINOMEscan (Ambit Biosciences)

EPHB3 = target: T8, EPHB3 (Homo sapiens, UniProt P54753); experiment: KINOMEscan panel screen; format: binding; conditions: read-out: Percent Control(%)
T8 construct: purchased DiscoveRx KINOMEscan (Ambit Biosciences)

ALK(C1156Y) = target: T9, ALK(C1156Y) (Homo sapiens, UniProt Q9UM73, C1156Y); experiment: KINOMEscan panel screen; format: binding; conditions: read-out: Percent Control(%)
T9 construct: purchased DiscoveRx KINOMEscan (Ambit Biosciences)

TAK1 = target: T10, TAK1 (Homo sapiens, UniProt O43318); experiment: KINOMEscan panel screen; format: binding; conditions: read-out: Percent Control(%)
T10 construct: purchased DiscoveRx KINOMEscan (Ambit Biosciences)

NEK3 = target: T11, NEK3 (Homo sapiens, UniProt P51956); experiment: KINOMEscan panel screen; format: binding; conditions: read-out: Percent Control(%)
T11 construct: purchased DiscoveRx KINOMEscan (Ambit Biosciences)

STK33 = target: T12, STK33 (Homo sapiens, UniProt Q9BYT3); experiment: KINOMEscan panel screen; format: binding; conditions: read-out: Percent Control(%)
T12 construct: purchased DiscoveRx KINOMEscan (Ambit Biosciences)
T12 sequence (Q9BYT3 whole entry): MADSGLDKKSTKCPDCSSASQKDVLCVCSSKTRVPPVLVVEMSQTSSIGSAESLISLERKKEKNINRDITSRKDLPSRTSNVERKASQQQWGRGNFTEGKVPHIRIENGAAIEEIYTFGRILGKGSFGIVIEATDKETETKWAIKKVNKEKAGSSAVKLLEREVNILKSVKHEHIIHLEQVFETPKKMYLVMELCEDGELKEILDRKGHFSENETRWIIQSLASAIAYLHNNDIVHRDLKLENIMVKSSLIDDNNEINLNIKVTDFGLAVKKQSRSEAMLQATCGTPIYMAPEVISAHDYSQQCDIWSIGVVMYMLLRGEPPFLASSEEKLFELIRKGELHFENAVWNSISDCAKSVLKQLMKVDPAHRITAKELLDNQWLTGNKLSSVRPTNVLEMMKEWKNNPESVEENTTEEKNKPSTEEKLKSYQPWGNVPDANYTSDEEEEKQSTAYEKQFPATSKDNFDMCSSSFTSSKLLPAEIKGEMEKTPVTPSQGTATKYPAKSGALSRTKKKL

[2] = target: T13, JAK3(JH1domain-catalytic) (Homo sapiens, UniProt P52333); experiment: KINOMEscan panel screen; format: binding; conditions: read-out: Percent Control(%)
T13 construct: JAK3(JH1domain-catalytic); purchased DiscoveRx KINOMEscan (Ambit Biosciences)

MLK1 = target: T14, MLK1 (Homo sapiens, UniProt P80192); experiment: KINOMEscan panel screen; format: binding; conditions: read-out: Percent Control(%)
T14 construct: purchased DiscoveRx KINOMEscan (Ambit Biosciences)
T14 sequence (P80192 whole entry): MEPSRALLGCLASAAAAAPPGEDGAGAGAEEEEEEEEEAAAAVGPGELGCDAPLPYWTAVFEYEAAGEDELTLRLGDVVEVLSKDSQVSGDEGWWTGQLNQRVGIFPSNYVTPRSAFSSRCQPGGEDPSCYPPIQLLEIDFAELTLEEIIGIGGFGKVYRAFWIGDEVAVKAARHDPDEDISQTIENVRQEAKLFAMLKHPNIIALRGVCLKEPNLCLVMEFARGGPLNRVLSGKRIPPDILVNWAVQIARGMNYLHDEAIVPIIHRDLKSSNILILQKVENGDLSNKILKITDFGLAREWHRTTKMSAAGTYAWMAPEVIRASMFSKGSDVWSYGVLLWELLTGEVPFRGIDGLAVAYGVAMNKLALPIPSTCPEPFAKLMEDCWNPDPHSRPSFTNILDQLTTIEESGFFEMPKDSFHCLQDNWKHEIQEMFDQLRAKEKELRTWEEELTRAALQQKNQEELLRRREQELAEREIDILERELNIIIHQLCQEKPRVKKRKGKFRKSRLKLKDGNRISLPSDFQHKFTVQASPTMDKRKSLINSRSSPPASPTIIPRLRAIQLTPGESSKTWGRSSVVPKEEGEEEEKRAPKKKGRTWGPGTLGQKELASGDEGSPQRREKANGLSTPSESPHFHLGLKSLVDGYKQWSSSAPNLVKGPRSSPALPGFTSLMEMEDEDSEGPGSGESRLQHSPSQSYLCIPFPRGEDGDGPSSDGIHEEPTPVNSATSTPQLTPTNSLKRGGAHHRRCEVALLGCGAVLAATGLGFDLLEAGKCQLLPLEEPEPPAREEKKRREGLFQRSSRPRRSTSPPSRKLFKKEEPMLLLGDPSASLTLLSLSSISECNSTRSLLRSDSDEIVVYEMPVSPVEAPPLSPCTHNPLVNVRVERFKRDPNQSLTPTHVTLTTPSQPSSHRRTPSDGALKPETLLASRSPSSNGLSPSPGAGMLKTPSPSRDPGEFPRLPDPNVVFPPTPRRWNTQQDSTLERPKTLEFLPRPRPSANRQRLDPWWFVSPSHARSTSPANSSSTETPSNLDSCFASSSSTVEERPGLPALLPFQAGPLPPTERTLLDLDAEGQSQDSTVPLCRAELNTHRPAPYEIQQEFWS

[3] = tested on: wnt8.1 RNA injected zebrafish embryos; experiment: Zebrafish wnt8.1 rescue experiment; format: in vivo; conditions: 10 μM after microinjection of wnt8.1 RNA
CSNK1G1 = target: T15, CSNK1G1 (Homo sapiens, UniProt Q9HCP0); experiment: KINOMEscan panel screen; format: binding; conditions: read-out: Percent Control(%)
T15 construct: purchased DiscoveRx KINOMEscan (Ambit Biosciences)

PRP4 = target: T16, PRP4 (Homo sapiens, UniProt Q13523); experiment: KINOMEscan panel screen; format: binding; conditions: read-out: Percent Control(%)
T16 construct: purchased DiscoveRx KINOMEscan (Ambit Biosciences)
Procedure: (§1) In vitro KINOMEscan kinase binding assays (Ambit Biosciences) were employed to determine the binding affinity (Kd) of compounds[41][42].
(§2) Supplementary Table S3. Matrix of compound screen for SKLB -677 obtained through service provided by DiscoveRX. The compound was screened at a concentration of 10μM. Results are given in %control.
(§3) KINOMEscan Gene Symbol Entrez Gene Percent Compound
(§4) Symbol Control(%) Concentration (μM) […]

CDC2L5 = target: T17, CDC2L5 (Homo sapiens, UniProt Q14004); experiment: KINOMEscan panel screen; format: binding; conditions: read-out: Percent Control(%)
T17 construct: purchased DiscoveRx KINOMEscan (Ambit Biosciences)
Procedure: as §1, §2, §3, §4

MYO3B = target: T18, MYO3B (Homo sapiens, UniProt Q8WXR4); experiment: KINOMEscan panel screen; format: binding; conditions: read-out: Percent Control(%)
T18 construct: purchased DiscoveRx KINOMEscan (Ambit Biosciences)

PIM1 = target: T19, PIM1 (Homo sapiens, UniProt P11309); experiment: KINOMEscan panel screen; format: binding; conditions: read-out: Percent Control(%)
T19 construct: purchased DiscoveRx KINOMEscan (Ambit Biosciences)

H1975 = experiment: MTT cell viability assay; conditions: Homo sapiens, NCI-H1975, 72 h
RET = target: T20, RET (Homo sapiens, UniProt P07949); experiment: KINOMEscan panel screen; format: binding; conditions: read-out: Percent Control(%)
T20 construct: purchased DiscoveRx KINOMEscan (Ambit Biosciences)
T20 sequence (P07949 29-1114): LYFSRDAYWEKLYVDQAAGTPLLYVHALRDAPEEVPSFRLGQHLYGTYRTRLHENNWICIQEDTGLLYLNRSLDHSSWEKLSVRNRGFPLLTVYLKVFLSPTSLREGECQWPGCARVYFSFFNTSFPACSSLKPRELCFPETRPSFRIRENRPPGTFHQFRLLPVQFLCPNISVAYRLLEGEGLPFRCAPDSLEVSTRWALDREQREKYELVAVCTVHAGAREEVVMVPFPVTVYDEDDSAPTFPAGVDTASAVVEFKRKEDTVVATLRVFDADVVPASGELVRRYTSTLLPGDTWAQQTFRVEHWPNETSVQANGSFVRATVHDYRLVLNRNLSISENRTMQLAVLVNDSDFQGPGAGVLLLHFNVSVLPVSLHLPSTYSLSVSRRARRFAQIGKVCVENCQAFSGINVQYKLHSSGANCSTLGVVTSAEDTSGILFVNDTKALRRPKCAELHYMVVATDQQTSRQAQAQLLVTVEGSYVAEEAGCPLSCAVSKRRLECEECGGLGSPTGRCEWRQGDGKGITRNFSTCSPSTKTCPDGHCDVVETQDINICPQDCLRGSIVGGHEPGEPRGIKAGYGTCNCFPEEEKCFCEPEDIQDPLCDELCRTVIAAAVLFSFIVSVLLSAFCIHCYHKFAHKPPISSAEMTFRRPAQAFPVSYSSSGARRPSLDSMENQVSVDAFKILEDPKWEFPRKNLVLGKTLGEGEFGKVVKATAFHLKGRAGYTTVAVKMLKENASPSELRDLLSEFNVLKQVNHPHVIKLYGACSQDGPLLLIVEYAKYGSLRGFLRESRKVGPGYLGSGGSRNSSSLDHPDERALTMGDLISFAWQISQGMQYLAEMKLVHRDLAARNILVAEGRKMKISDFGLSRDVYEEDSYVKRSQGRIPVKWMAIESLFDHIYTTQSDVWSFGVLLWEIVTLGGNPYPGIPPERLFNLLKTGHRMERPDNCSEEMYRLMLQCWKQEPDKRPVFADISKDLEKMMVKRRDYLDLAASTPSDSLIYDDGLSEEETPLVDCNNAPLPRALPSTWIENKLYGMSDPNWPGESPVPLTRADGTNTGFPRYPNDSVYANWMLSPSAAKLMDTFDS

CAMK2B = target: T21, CAMK2B (Homo sapiens, UniProt Q13554); experiment: KINOMEscan panel screen; format: binding; conditions: read-out: Percent Control(%)
T21 construct: purchased DiscoveRx KINOMEscan (Ambit Biosciences)

[4] = target: T22, EGFR(L747-S752del, P753S) (Homo sapiens, UniProt P00533, DEL747-752/P753S); experiment: KINOMEscan panel screen; format: binding; conditions: read-out: Percent Control(%)
T22 construct: purchased DiscoveRx KINOMEscan (Ambit Biosciences)
T22 sequence (P00533 with tags, fused parts or gaps DEL747-752/P753S limits assumed): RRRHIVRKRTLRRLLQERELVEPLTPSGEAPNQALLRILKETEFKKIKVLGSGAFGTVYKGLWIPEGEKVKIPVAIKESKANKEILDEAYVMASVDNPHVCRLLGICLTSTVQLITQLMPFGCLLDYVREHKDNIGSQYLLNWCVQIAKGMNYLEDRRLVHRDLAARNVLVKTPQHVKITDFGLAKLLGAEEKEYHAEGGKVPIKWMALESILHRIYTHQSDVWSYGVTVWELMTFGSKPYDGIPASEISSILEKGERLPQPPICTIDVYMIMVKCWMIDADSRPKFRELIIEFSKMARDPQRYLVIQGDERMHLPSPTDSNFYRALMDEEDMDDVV

[5] = target: T23, ABL1(H396P)-nonphosphorylated (Homo sapiens, UniProt P00519, H396P); experiment: KINOMEscan panel screen; format: binding; conditions: read-out: Percent Control(%)
T23 construct: purchased DiscoveRx KINOMEscan (Ambit Biosciences)

SgK110 = target: T24, SgK110 (Homo sapiens, UniProt P0C264); experiment: KINOMEscan panel screen; format: binding; conditions: read-out: Percent Control(%)
T24 construct: purchased DiscoveRx KINOMEscan (Ambit Biosciences)
T24 sequence (P0C264 whole entry): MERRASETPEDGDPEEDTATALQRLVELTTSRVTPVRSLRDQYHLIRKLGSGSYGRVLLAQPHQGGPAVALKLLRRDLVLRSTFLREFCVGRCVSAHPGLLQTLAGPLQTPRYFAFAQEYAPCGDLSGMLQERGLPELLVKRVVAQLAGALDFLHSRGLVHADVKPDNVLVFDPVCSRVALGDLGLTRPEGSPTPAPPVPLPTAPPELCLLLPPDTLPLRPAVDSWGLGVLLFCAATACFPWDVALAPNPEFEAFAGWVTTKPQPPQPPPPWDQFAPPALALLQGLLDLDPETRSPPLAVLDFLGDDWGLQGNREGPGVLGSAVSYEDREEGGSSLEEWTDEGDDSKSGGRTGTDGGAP

EGFR(G719C) = target: T25, EGFR(G719C) (Homo sapiens, UniProt P00533, G719C); experiment: KINOMEscan panel screen; format: binding; conditions: read-out: Percent Control(%)
T25 construct: purchased DiscoveRx KINOMEscan (Ambit Biosciences)

NEK2 = target: T26, NEK2 (Homo sapiens, UniProt P51955); experiment: KINOMEscan panel screen; format: binding; conditions: read-out: Percent Control(%)
T26 construct: purchased DiscoveRx KINOMEscan (Ambit Biosciences)

YSK4 = target: T27, YSK4 (Homo sapiens, UniProt Q56UN5); experiment: KINOMEscan panel screen; format: binding; conditions: read-out: Percent Control(%)
T27 construct: purchased DiscoveRx KINOMEscan (Ambit Biosciences)

CAMKK2 = target: T28, CAMKK2 (Homo sapiens, UniProt Q96RR4); experiment: KINOMEscan panel screen; format: binding; conditions: read-out: Percent Control(%)
T28 construct: purchased DiscoveRx KINOMEscan (Ambit Biosciences)

RIPK5 = target: T29, RIPK5 (Homo sapiens, UniProt Q6XUX3); experiment: KINOMEscan panel screen; format: binding; conditions: read-out: Percent Control(%)
T29 construct: purchased DiscoveRx KINOMEscan (Ambit Biosciences)
T29 sequence (Q6XUX3 whole entry): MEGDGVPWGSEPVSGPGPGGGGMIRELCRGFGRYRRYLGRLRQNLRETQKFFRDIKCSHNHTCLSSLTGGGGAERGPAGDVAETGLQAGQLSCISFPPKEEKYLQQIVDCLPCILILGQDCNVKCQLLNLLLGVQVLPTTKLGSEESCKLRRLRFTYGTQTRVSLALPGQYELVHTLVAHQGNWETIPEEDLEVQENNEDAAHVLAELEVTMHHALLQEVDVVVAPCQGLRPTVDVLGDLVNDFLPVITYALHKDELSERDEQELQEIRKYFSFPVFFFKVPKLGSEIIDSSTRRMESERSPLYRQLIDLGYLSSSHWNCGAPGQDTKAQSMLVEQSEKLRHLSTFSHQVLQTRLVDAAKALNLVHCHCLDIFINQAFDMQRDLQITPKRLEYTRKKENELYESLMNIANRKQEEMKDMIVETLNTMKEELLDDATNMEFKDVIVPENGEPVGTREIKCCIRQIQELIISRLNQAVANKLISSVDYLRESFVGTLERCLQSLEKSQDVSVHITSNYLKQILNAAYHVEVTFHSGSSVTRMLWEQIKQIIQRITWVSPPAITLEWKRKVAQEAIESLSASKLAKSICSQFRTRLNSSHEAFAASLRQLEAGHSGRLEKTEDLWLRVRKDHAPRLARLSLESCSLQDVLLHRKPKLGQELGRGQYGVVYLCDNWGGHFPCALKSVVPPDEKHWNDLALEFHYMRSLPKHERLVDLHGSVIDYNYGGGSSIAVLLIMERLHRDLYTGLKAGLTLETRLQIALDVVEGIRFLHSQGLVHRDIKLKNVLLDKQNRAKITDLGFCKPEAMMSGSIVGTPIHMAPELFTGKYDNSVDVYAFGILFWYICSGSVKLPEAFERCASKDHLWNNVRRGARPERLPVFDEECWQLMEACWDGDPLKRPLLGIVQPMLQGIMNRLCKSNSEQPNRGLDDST

NEK6 = target: T30, NEK6 (Homo sapiens, UniProt Q9HC98); experiment: KINOMEscan panel screen; format: binding; conditions: read-out: Percent Control(%)
T30 construct: purchased DiscoveRx KINOMEscan (Ambit Biosciences)

PIK4CB = target: T31, PIK4CB (Homo sapiens, UniProt Q9UBF8); experiment: KINOMEscan panel screen; format: binding; conditions: read-out: Percent Control(%)
T31 construct: purchased DiscoveRx KINOMEscan (Ambit Biosciences)

MST1R = target: T32, MST1R (Homo sapiens, UniProt Q04912); experiment: KINOMEscan panel screen; format: binding; conditions: read-out: Percent Control(%)
T32 construct: purchased DiscoveRx KINOMEscan (Ambit Biosciences)

MERTK = target: T33, MERTK (Homo sapiens, UniProt Q12866); experiment: KINOMEscan panel screen; format: binding; conditions: read-out: Percent Control(%)
T33 construct: purchased DiscoveRx KINOMEscan (Ambit Biosciences)

BRAF(V600E) = target: T34, BRAF(V600E) (Homo sapiens, UniProt P15056, V600E); experiment: KINOMEscan panel screen; format: binding; conditions: read-out: Percent Control(%)
T34 construct: purchased DiscoveRx KINOMEscan (Ambit Biosciences)

PAK2 = target: T35, PAK2 (Homo sapiens, UniProt Q13177); design: method as in earlier work; conditions: Table S1; cited from earlier work
T35 construct: purchased DiscoveRx KINOMEscan (Ambit Biosciences)
T35 sequence (Q13177 whole entry): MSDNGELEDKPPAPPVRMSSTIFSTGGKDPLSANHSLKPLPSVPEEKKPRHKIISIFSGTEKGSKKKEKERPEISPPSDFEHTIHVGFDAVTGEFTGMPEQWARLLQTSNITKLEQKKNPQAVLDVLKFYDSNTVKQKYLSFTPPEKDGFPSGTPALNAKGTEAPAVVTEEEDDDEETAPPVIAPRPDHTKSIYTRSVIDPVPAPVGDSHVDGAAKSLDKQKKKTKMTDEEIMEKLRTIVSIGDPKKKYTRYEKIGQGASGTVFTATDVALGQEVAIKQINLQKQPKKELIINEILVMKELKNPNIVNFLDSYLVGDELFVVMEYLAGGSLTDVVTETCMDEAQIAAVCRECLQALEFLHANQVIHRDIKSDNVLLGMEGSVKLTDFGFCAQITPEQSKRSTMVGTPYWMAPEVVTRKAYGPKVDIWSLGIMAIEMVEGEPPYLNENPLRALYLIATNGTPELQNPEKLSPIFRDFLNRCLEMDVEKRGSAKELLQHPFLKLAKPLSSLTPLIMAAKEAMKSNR

## CC(C)(C)c1cc(NC(=O)Nc2ccc(Oc3ncnc4[nH]ncc34)c(F)c2)no1 [SKLB-677, 1-(4-(1H-pyrazolo[3,4-d]pyrimidin-4-yloxy)-3-fluorophenyl)-3-(5-tert-butylisoxazol-3-yl)urea]
PIP5K1A
  remaining binding at 10 µM: 22%
LYN
  remaining binding at 10 µM: 2%
MLK2
  remaining binding at 10 µM: 99%
CSNK1G2
  remaining binding at 10 µM: 26%
[1]
  remaining binding at 10 µM: 94%
PHKG1
  remaining binding at 10 µM: 85%
ARK5
  remaining binding at 10 µM: 47%
EPHB3
  remaining binding at 10 µM: 0.8%
ALK(C1156Y)
  remaining binding at 10 µM: 17%
TAK1
  remaining binding at 10 µM: 100%
NEK3
  remaining binding at 10 µM: 41%
STK33
  remaining binding at 10 µM: 0.05%
[2]
  remaining binding at 10 µM: 14%
MLK1
  remaining binding at 10 µM: 42%
[3]
  embryos unaffected: 65%
  embryos with mild or moderate posteriorized phenotypes: 35%
CSNK1G1
  remaining binding at 10 µM: 86%
PRP4
  remaining binding at 10 µM: 73%
CDC2L5
  remaining binding at 10 µM: 0.6%
MYO3B
  remaining binding at 10 µM: 17%
PIM1
  remaining binding at 10 µM: 26%
H1975
  IC50: > 10 µM
RET
  remaining binding at 10 µM: 0.05%
CAMK2B
  remaining binding at 10 µM: 77%
[4]
  remaining binding at 10 µM: 38%
[5]
  remaining binding at 10 µM: 5.8%
SgK110
  remaining binding at 10 µM: 100%
EGFR(G719C)
  remaining binding at 10 µM: 37%
NEK2
  remaining binding at 10 µM: 100%
YSK4
  remaining binding at 10 µM: 0.15%
CAMKK2
  remaining binding at 10 µM: 30%
RIPK5
  remaining binding at 10 µM: 98%
NEK6
  remaining binding at 10 µM: 99%
PIK4CB
  remaining binding at 10 µM: 52%
MST1R
  remaining binding at 10 µM: 42%
MERTK
  remaining binding at 10 µM: 0%
BRAF(V600E)
  remaining binding at 10 µM: 0.05%

## O=C(Nc1ccc(Oc2ncnc3[nH]ncc23)cc1)Nc1ccc(Cl)c(C(F)(F)F)c1 [Compound 1, 1-(4-(1H-pyrazolo[3,4-d]pyrimidin-4-yloxy)phenyl)-3-(4-chloro-3-(trifluoromethyl)phenyl)urea]
PAK2
  IC50: > 10 µM
